Patent US5482957A, “Azole derivatives, process for their preparation and their use” (Hoechst Aktiengesellschaft, priority 1991, dated 1996)

Target: angiotensin II receptor
Experiment: Displacement of 125I- or 3H-angiotensin II from receptor preparations from various organs (liver, lung, adrenal gland, brain etc.)
Assay type: binding
Conditions: Table 1; radioligand displacement, 25° C., 90 min, pH 7.4
Experimental: Alternatively, the affinity of the compounds of the formula I for the angiotensin II receptor can be determined by measurement of the ^125 I-angiotensin II or ^3 H-angiotensin II displacement of receptor preparations from various organs (liver, lung, adrenal gland, brain etc.).
To this end, the prepared membranes are suspended in an incubation buffer ([…], pH 7.4, containing 135 mM NaCl, 10 mM KCl, 10 mM MgCl2, 5 mM glucose, 0.2% bovine serum albumin and the protease inhibitors PMSF, 0.3 mM, and bacitracin, 0.1 mM) and incubated at 25° C. for 90 min together with the radioactively labeled angiotensin II and various concentrations of the compounds to be tested. Bound and free radioligand are then separated by filtration through micro glass fiber filters (GF51, Schleicher and Schull) in a cell collector (SKATRON).
The degree of displacement of the radioligand from the receptor by the test compounds is determined by measurement of the receptor-bound radioactivity on the filters by means of a beta- or gamma-spectrometer. The amount of the displacement of the radioligand from the receptor by the test compounds is indicated by the IC50, i.e. the concentration of the inhibitor which displaces 50% of the bound radioligand from the receptor. The calculation of the IC50 values is carried out by means of PC software (LIGAND, G. A. McPherson 1985, Elsevier BIOSOFT, 68 Hills Road, Cambridge, CB2 1LA, UK.).

`C=CCCOC(=O)NS(=O)(=O)c1ccccc1-c1ccc(Cn2c(CCCC)nc(SC)c2C(=O)O)cc1` [Example 153] and `C=CCOC(=O)NS(=O)(=O)c1ccccc1-c1ccc(Cn2c(CCCC)nc(SC)c2C(=O)O)cc1` [Example 181, 1-[(2'-allyloxycarbonylaminosulfonylbiphenyl-4-yl)methyl]-2-n-butyl-4-methylthioimidazole-5-carboxylic acid] are within 1.5-fold of each other in IC50: 0.88 nM for the first, 1 nM for the second.

`CCCCc1nc(Cl)c(C=O)n1Cc1ccc(-c2ccccc2S(=O)(=O)NC(=O)NCc2ccc(OC)cc2)cc1` [Example 34] and `CCCCc1nc(SC)c(C(=O)O)n1Cc1ccc(-c2ccccc2S(=O)(=O)NC(=O)NCc2ccc(OC)cc2)cc1` [Example 90] are within 1.5-fold of each other in IC50: 1 nM for the first, 0.69 nM for the second.

First: CCCCc1nc(Cl)c(C=O)n1Cc1ccc(-c2ccccc2S(=O)(=O)NC(=O)NCCc2ccccc2)cc1 [Example 37]
Second: CCCCc1nc(Cl)c(C=O)n1Cc1ccc(-c2ccccc2S(=O)(=O)NC(=O)Nc2ccccc2)cc1 [Example 1, 1-[(2'-phenylaminocarbonylaminosulfonylbiphenyl-4-yl)methyl]-2-n-butyl-4-chloroimidazole-5-carboxaldehyde]
The IC50 of the first is 4500-fold lower: 1.1 nM for the first, 5000 nM for the second. The first is the more potent here.

First: C#CCCOC(=O)NS(=O)(=O)c1ccccc1-c1ccc(Cn2c(CCCC)nc(SC)c2C(=O)O)cc1 [Example 154]
Second: CCCCc1nc(SC)c(C(=O)O)n1Cc1ccc(-c2ccccc2S(=O)(=O)NC(=O)OCC)cc1 [Example 171]
The IC50 of the first is 2.6-fold higher: 1.8 nM for the first, 0.7 nM for the second. The second is the more potent here.

Compared with `CCCCc1nc(Cl)c(C=O)n1Cc1ccc(-c2ccccc2S(=O)(=O)NC(=O)Nc2ccccc2OC)cc1` [Example 33], `CCCCc1nc(Cl)c(C=O)n1Cc1ccc(-c2ccccc2S(=O)(=O)NC(=O)Nc2ccccc2C)cc1` [Example 36] is 2.1-fold lower in IC50: 34 nM for the first, 16 nM for the second.

Going from `CCCCc1nc(SC)c(C(=O)O)n1Cc1ccc(-c2ccccc2S(=O)(=O)NC(=O)NCC2CCC3CC2C3(C)C)cc1` (stereo not shown) [Example 135] to `CCCCc1nc(SC)c(C(=O)OCC)n1Cc1ccc(-c2ccccc2S(=O)(=O)NC(=O)NCC2CCC3CC2C3(C)C)cc1` (stereo not shown) [Example 134], the IC50 rises from 5.6 nM to 180 nM (32-fold).

Going from `CCCCc1nc(SC)c(C(=O)O)n1Cc1ccc(-c2ccccc2S(=O)(=O)NC(=O)NCc2ccc(OC)c(OC)c2)cc1` [Example 89] to `CCCCc1nc(SC)c(C(=O)OCC)n1Cc1ccc(-c2ccccc2S(=O)(=O)NC(=O)NCc2ccc(OC)c(OC)c2)cc1` [Example 92], the IC50 rises from 1.1 nM to 280 nM (250-fold).

Going from `CCCCc1nc(Cl)c(C=O)n1Cc1ccc(-c2ccccc2S(=O)(=O)NC(=O)NCCC)cc1` [Example 2, 1-[(2'-n-propylaminocarbonylaminosulfonylbiphenyl-4-yl)methyl]-2-n-butyl-4-chloroimidazole-5-carboxaldehyde] to `C=CCNC(=O)NS(=O)(=O)c1ccccc1-c1ccc(Cn2c(CCCC)nc(Cl)c2C=O)cc1` [Example 55, 1-[(2'-allylaminocarbonylaminosulfonylbiphenyl-4-yl)methyl]-2-n-butyl-4-chloroimidazole-5-carboxaldehyde], the IC50 falls from 8000 nM to 8.8 nM (910-fold).

`C=CCNC(=O)NS(=O)(=O)c1ccccc1-c1ccc(Cn2c(CCCC)nc(SC)c2C(=O)OCC)cc1` [Example 58] and `CCCCc1nc(SC)c(C(=O)OCC)n1Cc1ccc(-c2ccccc2S(=O)(=O)NC(=O)NCCC)cc1` [Example 105] are the same in IC50: 3 nM for the first, 3 nM for the second.

First: CCCCc1nc(SC)c(C(=O)O)n1Cc1ccc(-c2ccccc2S(=O)(=O)NC(=O)OCC2CC=CCC2)cc1 (stereo not shown) [Example 168]
Second: CCCCc1nc(SC)c(C(=O)O)n1Cc1ccc(-c2ccccc2S(=O)(=O)NC(=O)NCC2CC2)cc1 [Example 109]
The IC50 of the first is 12-fold higher: 7 nM for the first, 0.6 nM for the second.

Going from `CCCCc1nc(SC)c(C(=O)OCC)n1Cc1ccc(-c2ccccc2S(=O)(=O)NC(=O)OCCOC(C)C)cc1` [Example 156] to `CCCCc1nc(SC)c(C(=O)OCC)n1Cc1ccc(-c2ccccc2S(=O)(=O)NC(=O)OCC)cc1` [Example 170], the IC50 falls from 4.7 nM to 2.7 nM (1.7-fold).

First: CCCCc1nc(SC)c(C(=O)OCC)n1Cc1ccc(-c2ccccc2S(=O)(=O)NC(=O)n2cccc2)cc1 [Example 138]
Second: CCCCc1nc(SC)c(C(=O)O)n1Cc1ccc(-c2ccccc2S(=O)(=O)NC(=O)n2cccc2)cc1 [Example 139]
The IC50 of the first is 1.6-fold lower: 1.7 nM for the first, 2.8 nM for the second. The first is the more potent here.

First: CCCCc1nc(SC)c(C(=O)O)n1Cc1ccc(-c2ccccc2S(=O)(=O)NC(=O)OCC=C(C)C)cc1 [Example 165]
Second: CCCCc1nc(SC)c(C(=O)OCC)n1Cc1ccc(-c2ccccc2S(=O)(=O)NC(=O)OC)cc1 [Example 174]
The IC50 of the first is 2.2-fold lower: 2.3 nM for the first, 5.1 nM for the second.

`CCCCc1nc(SC)c(C(=O)OCC)n1Cc1ccc(-c2ccccc2S(=O)(=O)NC(=O)NC)cc1` [Example 195] and `CCCCc1nc(SC)c(C(=O)OCC)n1Cc1ccc(-c2ccccc2S(=O)(=O)NC(=O)N[C@H](C(=O)OC)C(C)C)cc1` [Example 69] are within 1.5-fold of each other in IC50: 3 nM for the first, 3.2 nM for the second.

`CCCCc1nc(Cl)c(C=O)n1Cc1ccc(-c2ccccc2S(=O)(=O)NC(=O)Nc2ccc([N+](=O)[O-])cc2)cc1` [Example 22] and `CCCCc1nc(Cl)c(C=O)n1Cc1ccc(-c2ccccc2S(=O)(=O)NC(=O)Nc2ccc(F)cc2)cc1` [Example 25] are within 1.5-fold of each other in IC50: 2000 nM for the first, 1400 nM for the second.

First: CCCCc1nc(SC)c(C(=O)OCC)n1Cc1ccc(-c2ccccc2S(=O)(=O)NC(=O)OCc2cccs2)cc1 [Example 163]
Second: CCCCc1nc(SC)c(C(=O)O)n1Cc1ccc(-c2ccccc2S(=O)(=O)NC(=O)OCc2cccs2)cc1 [Example 160]
The IC50 of the first is 5.1-fold higher: 3.7 nM for the first, 0.73 nM for the second. The second is the more potent here.

First: CCCCc1nc(SC)c(C(=O)O)n1Cc1ccc(-c2ccccc2S(=O)(=O)NC(=O)NCCC2=CCCCC2)cc1 [Example 62]
Second: CCCCc1nc(SC)c(C(=O)O)n1Cc1ccc(-c2ccccc2S(=O)(=O)NC(=O)NCCC2CCCN2C)cc1 (stereo not shown) [Example 108]
The IC50 of the first is 3.8-fold higher: 3.6 nM for the first, 0.95 nM for the second.

Going from `CCCCc1nc(SC)c(C(=O)OCC)n1Cc1ccc(-c2ccccc2S(=O)(=O)NC(=O)N2CCSCC2)cc1` [Example 144] to `CCCCc1nc(SC)c(C(=O)OCC)n1Cc1ccc(-c2ccccc2S(=O)(=O)NC(=O)NCC2CCNCC2)cc1` [Example 117], the IC50 falls from 5.3 nM to 1.2 nM (4.4-fold).

Compared with `CCCCc1nc(SC)c(C(=O)OCC)n1Cc1ccc(-c2ccccc2S(=O)(=O)NS(=O)(=O)c2ccc([N+](=O)[O-])cc2)cc1` [Example 191], `CCCCc1nc(SC)c(C(=O)OCC)n1Cc1ccc(-c2ccccc2S(=O)(=O)NC(=O)NCc2ccccc2)cc1` [Example 73] is 8.6-fold lower in IC50: 21.4 nM for the first, 2.5 nM for the second.

`CCCCc1nc(SC)c(C(=O)O)n1Cc1ccc(-c2ccccc2S(=O)(=O)NC(=O)NCc2ccccc2OC)cc1` [Example 83] and `CCCCc1nc(SC)c(C(=O)O)n1Cc1ccc(-c2ccccc2S(=O)(=O)NC(=O)NCc2ccccc2)cc1` [Example 80] are within 1.5-fold of each other in IC50: 0.96 nM for the first, 0.69 nM for the second.

First: CCCCc1nc(Cl)c(C=O)n1Cc1ccc(-c2cccc(S(=O)(=O)NC(=O)Nc3ncccn3)c2)cc1 [Example 4]
Second: CCCCc1nc(Cl)c(C=O)n1Cc1ccc(-c2ccccc2S(=O)(=O)NC(=O)Nc2ccc(C)cc2)cc1 [Example 35]
The IC50 of the first is 22-fold higher: 1100 nM for the first, 50 nM for the second.

First: CCCCc1nc(SC)c(C(=O)O)n1Cc1ccc(-c2ccccc2S(=O)(=O)NC(=O)N[C@@H](CO)c2ccccc2)cc1 [Example 125]
Second: CCCCc1nc(SC)c(C(=O)O)n1Cc1ccc(-c2ccccc2S(=O)(=O)NC(=O)NCCCc2ccccc2)cc1 [Example 81]
The IC50 of the first is 3.5-fold higher: 2.8 nM for the first, 0.79 nM for the second. The second is the more potent here.

First: CCCCc1nc(SC)c(C(=O)O)n1Cc1ccc(-c2ccccc2S(=O)(=O)NC(=O)OCc2ccccc2)cc1 [Example 183, 1-[(2'-Benzyloxycarbonylaminosulfonylbiphenyl-4-yl)methyl]-2-n-butyl-4-methylthioimidazole-5-carboxylic acid]
Second: CCCCc1nc(SC)c(C(=O)O)n1Cc1ccc(-c2ccccc2S(=O)(=O)NC(=O)OCC=Cc2ccccc2)cc1 [Example 162]
The IC50 of the first is 2.3-fold lower: 1.7 nM for the first, 3.9 nM for the second.

Compared with `CCCCc1nc(SC)c(C(=O)OCC)n1Cc1ccc(-c2ccccc2S(=O)(=O)NC(=O)OCCc2ccccc2)cc1` [Example 151], `CCCCc1nc(SC)c(C(=O)OCC)n1Cc1ccc(-c2ccccc2S(=O)(=O)NC(=O)NCCc2ccccc2)cc1` [Example 66] is 17-fold higher in IC50: 0.4 nM for the first, 6.9 nM for the second.

Compared with `CCCCc1nc(SC)c(C(=O)O)n1Cc1ccc(-c2ccccc2S(=O)(=O)NS(=O)(=O)N(C)C)cc1` [Example 179, 1-[1-(2'-dimethylsulfamoylaminosulfonylbiphenyl-4-yl)methyl]-2-n-butyl-4-methylthioimidazole-5-carboxylic acid], `CCCCc1nc(SC)c(C(=O)O)n1Cc1ccc(-c2ccccc2S(=O)(=O)NS(=O)(=O)c2cccs2)cc1` [Example 190, 1-[(2'-{2-Thienylsulfonylaminosulfonyl}biphenyl-4-yl)methyl]-2-n-butyl-4-methylthioimidazole-5-carboxylic acid] is 8.5-fold higher in IC50: 2.6 nM for the first, 22 nM for the second.

Compared with `CCCCc1nc(Cl)c(C=O)n1Cc1ccc(-c2ccccc2S(=O)(=O)NC(=O)NC2CN3CCC2CC3)cc1` (stereo not shown) [Example 31], `CCCCc1nc(SC)c(C(=O)O)n1Cc1ccc(-c2ccccc2S(=O)(=O)NC(=O)NCC2CCCCC2)cc1` [Example 60] is 70-fold lower in IC50: 153 nM for the first, 2.2 nM for the second. The second is the more potent here.

First: CCCCc1nc(SC)c(C(=O)OCC)n1Cc1ccc(-c2ccccc2S(=O)(=O)NC(=O)OCc2cccs2)cc1 [Example 159]
Second: CCCCc1nc(SC)c(C(=O)OCC)n1Cc1ccc(-c2ccccc2S(=O)(=O)NC(=O)NCCc2ccccn2)cc1 [Example 65]
The IC50 of the first is 4.8-fold higher: 8.7 nM for the first, 1.8 nM for the second.

Compound `C#CCNC(=O)NS(=O)(=O)c1ccccc1-c1ccc(Cn2c(CCCC)nc(SC)c2C(=O)O)cc1` [Example 64] has an IC50 of 0.5 nM.
